Legend:
[1] = target: T1, 5-hydroxytryptamine receptor 2A (Homo sapiens, UniProt P28223); assay: Displacement of [3H]ketanserin from human 5-HT2A receptor
[2] = target: D(2) dopamine receptor (Homo sapiens) (UniProt P14416); details: CHO
Description: Competitive antagonist activity at human D2 receptor expressed in CHO cells assessed as inhibition of cAMP release after 30 mins by HTRF assay

[3] = target: T1, 5-hydroxytryptamine receptor 2A; details: CHO
Description: Competitive antagonist activity at human 5-HT2A receptor expressed in CHO cells assessed as inhibition of inositol phosphate release after 30 mins by HTRF assay

[4] = target: T1, 5-hydroxytryptamine receptor 2A; assay: Binding affinity for 5-HT2A receptor (unknown origin)

Sequence of D(2) dopamine receptor (Homo sapiens) (P14416 whole entry): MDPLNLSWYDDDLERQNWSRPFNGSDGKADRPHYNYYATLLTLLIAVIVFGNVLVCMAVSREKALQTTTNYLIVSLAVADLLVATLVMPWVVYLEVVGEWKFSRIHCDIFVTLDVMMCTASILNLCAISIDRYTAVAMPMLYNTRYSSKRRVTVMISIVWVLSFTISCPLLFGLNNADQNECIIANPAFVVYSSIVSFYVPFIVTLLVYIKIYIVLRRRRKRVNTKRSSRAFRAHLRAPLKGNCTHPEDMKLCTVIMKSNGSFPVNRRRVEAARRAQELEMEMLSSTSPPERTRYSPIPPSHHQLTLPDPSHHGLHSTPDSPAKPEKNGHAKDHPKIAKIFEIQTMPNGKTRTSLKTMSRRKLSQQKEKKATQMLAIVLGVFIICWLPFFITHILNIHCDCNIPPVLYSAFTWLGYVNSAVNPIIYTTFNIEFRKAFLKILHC
T1 sequence (P28223 whole entry): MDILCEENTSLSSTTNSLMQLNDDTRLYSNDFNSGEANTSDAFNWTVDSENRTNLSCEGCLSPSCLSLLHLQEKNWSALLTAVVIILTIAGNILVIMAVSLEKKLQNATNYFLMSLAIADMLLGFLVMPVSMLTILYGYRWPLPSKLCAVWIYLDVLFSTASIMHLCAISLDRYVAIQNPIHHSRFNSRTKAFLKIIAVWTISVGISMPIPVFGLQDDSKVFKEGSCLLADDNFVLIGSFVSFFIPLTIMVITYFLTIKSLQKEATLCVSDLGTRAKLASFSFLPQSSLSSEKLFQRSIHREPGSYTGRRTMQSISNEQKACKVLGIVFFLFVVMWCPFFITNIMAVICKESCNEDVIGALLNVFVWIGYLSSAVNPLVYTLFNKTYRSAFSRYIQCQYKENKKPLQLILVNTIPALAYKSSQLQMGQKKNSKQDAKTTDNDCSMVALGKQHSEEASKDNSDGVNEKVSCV

| Structure (SMILES) | Ki [1] [nM] | pKb [2] | pKb [3] | Ki [4] [nM] |
| --- | --- | --- | --- | --- |
| O=C1CC(CN2CCC(c3noc4cc(F)ccc34)CC2)Cc2cc(-c3ccccc3)ccc21 (stereo unspecified) | 15.8 | 7.55 | 7.84 | – |
| CC(=O)c1ccc2c(c1)CC(CN1CCC(c3noc4cc(F)ccc34)CC1)CC2=O (stereo unspecified) | 31.6 | – | – | – |
| COc1ccccc1N1CCN(CCC2CCc3ccc(N)cc3C2O)CC1 (stereo unspecified) | 158 | – | – | – |
| COc1ccccc1N1CCN(CCC2CCc3ccc([N+](=O)[O-])cc3C2=O)CC1 (stereo unspecified) | 794 | – | – | – |
| O=C1CC(CN2CCC(c3noc4cc(F)ccc34)CC2)Cc2ccccc21 (stereo unspecified) | – | – | – | 2.75 |
| O=C1CC(CN2CCC(C(=O)c3ccc(F)cc3)CC2)Cc2cc(-c3ccccc3)ccc21 (stereo unspecified) | 631 | – | – | – |
| CC(=O)c1ccc2c(c1)CC(CN1CCC(C(=O)c3ccc(F)cc3)CC1)CC2=O (stereo unspecified) | 63.1 | – | – | – |
| O=[N+]([O-])c1ccc2c(c1)C(O)C(CCN1CCC(c3noc4cc(F)ccc34)CC1)CC2 (stereo unspecified) | 11 | – | – | – |
| COc1ccccc1N1CCN(CCC2CCc3ccc([N+](=O)[O-])cc3C2O)CC1 (stereo unspecified) | 513 | – | – | – |
| Nc1ccc2c(c1)C(O)C(CCN1CCC(C(=O)c3ccc(F)cc3O)CC1)CC2 (stereo unspecified) | 4.47 | 6.32 | 7.82 | – |
| COc1ccccc1N1CCN(CCC2CCc3ccc(N)cc3C2=O)CC1 (stereo unspecified) | 42.7 | – | – | – |
| Nc1ccc2c(c1)C(=O)C(CCN1CCC(C(=O)c3ccc(F)cc3O)CC1)CC2 (stereo unspecified) | 23.4 | – | – | – |
| Nc1ccc2c(c1)C(O)C(CCN1CCC(c3noc4cc(F)ccc34)CC1)CC2 (stereo unspecified) | 6.61 | – | – | – |
| Nc1ccc2c(c1)C(=O)C(CCN1CCC(c3noc4cc(F)ccc34)CC1)CC2 (stereo unspecified) | 5.01 | 7.53 | 8.76 | – |
| O=C1c2cc([N+](=O)[O-])ccc2CCC1CCN1CCC(c2noc3cc(F)ccc23)CC1 (stereo unspecified) | 19.1 | – | – | – |

— ChEMBL document CHEMBL3102756, “Synthesis and biological evaluation of a series of aminoalkyl-tetralones and tetralols as dual dopamine/serotonin ligands” (Eur J Med Chem, 2014)
